Test [1] deals with patient-derived tumor xenografts (PDXs) of breast, ovarian and pancreatic cancer. Briefly: In vivo PDX sensitivity to PARPi (antitumor activity by RECIST on % tumor volume change). On the set-up: species or system mice. The protocol: Fresh tumor samples from patients with breast or high-grade serous ovarian cancer were prospectively collected for implantation into nude mice under protocols approved by Vall Hebron's institutional review board (IRB), Institut Curie or Institut Paoli-Calmettes. Experiments were conducted following the European Union's animal care directive (2010/63/EU) and were approved by the Ethical Committee of Animal Experimentation of the Vall d'Hebron Research Institute (Barcelona, Spain) or by the Ethical Committee of Animal Experimentation CEEA-51 (Evry, France). Fresh primary or metastatic human tumors were obtained from patients at time of surgery or biopsy and immediately implanted into the mammary fat pad (surgery samples) or the lower flank (metastatic samples) of 6-week-old female athymic HsdCpb:NMRI-Foxnlnu mice (Harlan Laboratories). Animals were continuously supplemented with 1 μM 17b-estradiol (Sigma-Aldrich) in their drinking water. Upon growth of the engrafted tumors, the model was perpetuated by serial transplantation onto the lower flank. In each passage, flash-frozen and formalin-fixed paraffin embedded (FFPE) samples were taken for genotyping and histological studies.
To evaluate the sensitivity to PARP inhibition, tumor-bearing mice were equally distributed into treatment groups of 5 to 10 mice with tumors ranging 70 to 300 mm3. Olaparib 50 mg/kg or 100 mg/kg, Niraparib 75 mg/kg or 50 mg/kg, or Veliparib 100 mg/kg were administered per gavage (p.o.) daily (in 10% v/v DMSO/10% w/v Kleptose [HP-β-CD]). Tumor growth was measured with caliper bi-weekly from first day of treatment to day 21 and every 7-10 days in the acquired resistance setting. To generate PDX models with acquired resistance to PARPi, olaparib treatment was maintained for up to 150 days in olaparib-sensitive tumors until individual tumors regrew. In all experiments, mouse weight was recorded twice weekly. The tumor volume was calculated as V=4π/3/Lx12, “L” being the largest diameter and “1” the smallest. Mice were euthanized when tumors reached 1500 mm3 or in case of severe weight loss, in accordance with institutional guidelines. The antitumor activity was determined by comparing tumor volume at 21 days to its baseline: % tumor volume change=(V21 days−Vinitial)/Vinitial×100. For olaparib-sensitive PDX, the best response was defined as the minimum value of % tumor volume change sustained for at least 10 days. To classify the antitumor response, the Response Evaluation Criteria In Solid Tumors (RECIST) criteria on the % tumor volume change was followed: CR (complete response), best response<−95%; PR (partial response), −95<best response<−30%; SD (stable disease), −30%<best response<+20%, PD (progressive disease), best response>+20%.

The subject of another test is γH2AX foci. Nature of the test: γH2AX nuclear foci by immunofluorescence in FFPE PDX tumors. The class given is in vivo, mice. The protocol: (§1) The following primary antibodies were used for immunofluorescence: rabbit anti-RAD51 (Santa Cruz Biotechnology H-92, dilution 1:250), rabbit anti-RAD51 Ab from Cell Signalling Technologies (CST #8875, dilution 1:25 from a 83 μg/ml stock), rabbit anti-RAD51 Ab from Abcam (ab-133534, dilution 1:1000), mouse anti-Geminin (NovoCastra NCL-L, 1:100 in PDX samples, 1:60 in patient samples), rabbit anti-Geminin (ProteinTech 10802-1-AP, 1:400), mouse anti-BRCA1 (Santa Cruz Biotechnology D-9, 1:50 for C-term; or Abcam MS110, 1:200 for N-term), and mouse anti-γH2AX (Millipore JBW301, 1:200). The secondary antibodies used were: goat anti-rabbit Alexa fluor 568 (Invitrogen; 1:500), goat anti-mouse Alexa fluor 488 (Invitrogen; 1:500), goat anti-mouse Alexa fluor 568 (Invitrogen; 1:500) and goat anti-rabbit Alexa fluor 488 (Invitrogen; 1:500).
(§2) Thin tissue sections were deparaffinized with xylene and hydrated with decreasing concentrations of ethanol. […]
(§3) RAD51 was quantified by scoring: a) the percentage of tumor cells with RAD51 nuclear foci, b) the percentage of γH2AX foci positive cells with RAD51 foci, or c) the percentage of geminin positive cells with RAD51 foci, as indicated in the Figures. […] Optimally, one-hundred geminin or γH2AX foci-positive cells from at least 3 different and representative areas of each sample were analyzed. […]

The test system of the next test is RAD51 foci. Briefly: RAD51 nuclear foci by immunofluorescence in FFPE PDX tumors. The class given is in vivo, mice. On the procedure: as §1, §2, §3

Entries after “also recorded” stand apart in the source; their conditions may differ.

For the compound `O=C(c1cc(Cc2n[nH]c(=O)c3ccccc23)ccc1F)N1CCN(C(=O)C2CC2)CC1` [olaparib], the “number of PDX models in which treatment exhibited antitumor activity as assessed by RECIST” value in test [1] (of 44 PDX models (39 BrC, 3 HGSOC/OvC, 2 PaC), p.o. daily, CR/PR/SD) is “ten”. For the same compound, the “number of PDX models with complete response (CR)” value in test [1] (of 44 PDX models, CR: best response <-95% tumor volume change) is recorded as 6. Moreover, the “number of PDX models with progressive disease (PD), olaparib-resistant” value in test [1] (of 44 PDX models, PD: best response >+20%) is 34. Further, the “number of PDX models with partial response (PR)” value in test [1] (of 44 PDX models, PR: -95<best response<-30%) is recorded as 2. Also, the “γH2AX foci formation, percentage of tumor cells with γH2AX nuclear foci” value in the test with γH2AX foci (treated vs vehicle PDX tumors, sensitive and resistant groups (FIG. 2A)) is “increased; also recorded: induces”. Besides, the “γH2AX foci formation in geminin-positive cells” value in the test on γH2AX foci (treated vs vehicle, both sensitive and resistant tumors (FIG. 2B)) is listed as “increased; also recorded: significantly increases”. In the test with RAD51 foci (olaparib-treated samples from resistant PDX models (FIG. 2C)), the “percentage of RAD51 foci/geminin-positive cells (RAD51 score)” value is given as “significantly increased”. In addition, the “RAD51 foci formation, percentage of tumor cells with RAD51 nuclear foci” value in the test with RAD51 foci (treated vs vehicle, olaparib-resistant PDX models (FIG. 2A)) was “increased; also recorded: only significantly induced in the olaparib resistant PDX models”.
